Results as given in patent US7807384B2, “Low density lipoprotein binding proteins and their use in diagnosing and treating atherosclerosis” (Boston Heart Foundation, Inc., priority 1996, dated 2010).

Tests used:
[1] = biological target: T1, LBP-1/LDL binding (Homo sapiens, UniProt P04114); experiment: ACE assay of LBP-1/LDL binding in the presence of inhibitors; parameters: species or system rabbit; conditions: LDL 148 nM in gel; increasing inhibitor (polyglutamic acid 0-0.4 nM; BHF-1 0-10 nM)
T1 construct: the sizes of the recombinant proteins were determined to be 16.2 kDa for LBP-1; LDL was prepared from the plasma of normolipemic donors; 6-histidine tag (N); made in house; host or cells: E. coli DH10B, pPROEX-HT (LBP-1); LDL from human donor plasma
Description: (§1) This example illustrates that binding between LBP-1 or LBP-2 and LDL is inhibited by polyglutamic acid or BHF-1. The ability of a third compound to inhibit binding between two proteins previously shown to interact was tested by a modification of the ACE assays described in Example 8. The third compound was added to the top or wells together with the radiolabeled protein.
(§2) Inhibition of LBP-1/LDL or LBP-2/LDL binding by polyglutamic acid (average MW about 7500, corresponding to about […]) was shown by casting a constant amount of LDL (148 nM) in all the rectangular lanes. A constant amount (1 μl) of ^125I-labeled LBP-1 or LBP-2 (0.003 nM-0.016 nM) was loaded in the wells at the top of the gel, together with increasing concentrations of polyglutamic acid (obtained from Sigma) (0-0.4 nM). The gel was electrophoresed at 70 volts for 2 hr, dried and placed on X-ray film, with intensifying screens, overnight at −70° C. before the film was developed to determine the retardation profile of LBP-1 and LBP-2.
Inhibition of LBP-1/LDL binding by BHF-1 was shown by casting a constant amount of LDL (148 nM) in all the rectangular lanes. A constant amount of ^125I-labeled LBP-1 (0.003 nM-0.016 nM) was loaded in the wells at the top of the gel, together with increasing concentrations of BHF-1 (0-10 nM), obtained as described in Example 15. […]

[2] = biological target: T2, LBP-2/LDL binding (Homo sapiens, UniProt P04114); experiment: ACE assay of LBP-2/LDL binding in the presence of inhibitors; parameters: species or system rabbit; conditions: LDL 148 nM in gel; polyglutamic acid 0-0.4 nM
T2 construct: LDL was prepared from the plasma of normolipemic donors; 6-histidine tag (N); made in house; host or cells: E. coli DH10B, pPROEX-HT (LBP-2); LDL from human donor plasma
Description: as §1, §2

[3] = biological target: T3, recombinant LBP-1 (Homo sapiens, UniProt P04114); experiment: ELISA plate assay, binding of LDL to recombinant LBP-1; conditions: ELISA format
T3 construct: the sizes of the recombinant proteins were determined to be 16.2 kDa for LBP-1; 6-histidine tag (N); made in house; host or cells: E. coli DH10B, pPROEX-HT (LBP-1); LDL from human donor plasma
Description: (§3) In one example, the ELISA assay was carried out as follows: LDL was diluted in 50 mM Na2HCO3, pH 9.6/0.02% NaN3 and added to the wells of a 96-well plate (ImmunoWare 96-Well Reacti-Bind EIA Polystyrene Plates; Pierce (Rockford, Ill.)) to achieve a final concentration ranging from 0.1 to 1 μg/well. The plates were incubated for 6 hr at room temperature. At the end of the incubation period, the wells were washed 3 times with Tris-buffered saline, pH 7.4 (TBS), and blocked overnight with 200 μl of 1% bovine serum albumin (BSA) in TBS/0.02% NaN3 (Sigma; St. Louis Mo.) at room temperature. The wells were then incubated with 200 μl of LBP protein (5-10 μg/well) in TBS and varying concentrations of the test compound. Plates were incubated for 1 hr at room temperature. The wells were then washed three times with TBS and blocked for 2 hr with 200 μl of 1% BSA in TBS/0.02% NaN3 at room temperature. At the end of the incubation period, the wells were washed 3 times with TBS and a 1:1000 dilution (in TBS/0.05% Tween 20) of the appropriate guinea pig anti-LBP protein polyclonal antibody was added to the wells and incubated for 1 hr at room temperature. […] The absorbance was determined at 405 nm using an ELISA plate reader. The test compound's effectiveness in blocking the binding of LDL to the recombinant protein was assessed by comparing the absorbance values of control and treated groups. […]

[4] = tested on: recombinant LBP-2; experiment: ELISA plate assay, binding of LDL to recombinant LBP-2; conditions: ELISA format
Description: as §3

[5] = tested on: ballooned deendothelialized rabbit aorta; experiment: Radiolabeled LDL accumulation in ballooned deendothelialized abdominal aorta after active immunization; assay type: in vivo; conditions: immunized with RIBI adjuvant; corrected for dosage and percent reendothelialization; 24 hr after 125I-LDL
Description: Immunity was induced in male New Zealand White rabbits (Hazelton Research Products, Denver, Pa.) as follows: A mixture of purified human recombinant LBP-2 or BHF-1 peptide (1 ml; 1 mg) and RIBI adjuvant (RIBI ImmunoChem Research, Inc., Hamilton, Mont.) was injected subcutaneously at 2-5 sites along the dorsal thoracic and abdominal regions of the rabbits. Blood was collected by venipuncture on days 1 (preimmune bleeding), 35, 63, and 91. Booster injections were administered on days 28 (500 μg; SC), 56 (250 μg; SC), and 84 (125 μg; SC).
On day 93, the abdominal aorta of immunized and control rabbits was deendothelialized using a Fogarty number 4 embolectomy catheter (Chang et al., Arteriosclerosis and Thrombosis 12:1088-1098 (1992)). Four weeks after ballooning, rabbits received a bolus injection of ^125I-labeled LDL (1 ml; i.v.). […] Blood samples were centrifuged for 30 min at 2000 rpm ([…]) and total activity present in the serum was determined using a Gamma counter. Total TCA precipitable counts were determined by addition of TCA to the serum to a final concentration of 10% followed by incubation for 10 min at 4° C. Serum samples were then centrifuged (2000 rpm; 30 min; […]) and total activity present in the supernate was determined. TCA precipitable counts were calculated by subtraction: total soluble counts minus counts present in the supernate after TCA precipitation. […]

[6] = tested on: LDL receptor (LDLR) knockout mice; experiment: Aortic cholesterol content in BHF-1-immunized LDLR knockout mice; assay type: in vivo, mouse; conditions: 30 weeks of age, modified Western Type diet, P>0.037 as printed
Description: An immunization experiment was performed with the BHF-1 peptide. LDL receptor (LDLR) knockout mice (B6,129S-Ldlr^tmlHer, Jackson Laboratories, Bar Harbor, Me.) were injected with the BHF-1 peptide (see Example 15 for methods of synthesizing the BHF-1 peptide) together with an RIBI adjuvant (RIBI ImmunoChem Research, Inc., Hamilton, Mont.). LDLR knockout mice are hyperlipidemic and thus a model for human atherosclerosis. LDLR knockout mice have high levels of plasma cholesterol and develop naturally-occurring atherosclerotic-like lesions.
Four week old LDLR knockout mice were ear tagged, randomly assigned to different cages and weighed. Body weights were subsequently determined weekly. Animals were allowed to habituate for one week prior to experimentation. […]
Mice in the experimental group received subcutaneous injections (9.99 μg/g body weight; 200 μl final volume) of the BHF-1.20.L peptide daily for 2 weeks, from 5 to 7 weeks of age, prior to the initial injection with the peptide and adjuvant. […] Titer was defined as the maximum dilution of serum that yielded a change in absorbance equivalent to 2× that of control serum (60 min; 37° C.). […]
At 30 weeks of age, the mice were sacrificed and aorta were removed as described in Example 22. Aortic atherosclerosis was measured by the cholesterol extraction method described in Example 22, whereby cholesterol is determined as a unit weight of artery.

[7] = Body weight and serum lipids of BHF-1-immunized LDLR knockout mice; assay type: in vivo, mouse
Source text: Four week old LDLR knockout mice were ear tagged, randomly assigned to different cages and weighed. Body weights were subsequently determined weekly. Animals were allowed to habituate for one week prior to experimentation. Normal rodent chow was provided ad libitum and animals were maintained in a 12:12 light:dark cycle. Animals were divided into experimental and control groups, as follows: (1) experimental, 16 mice were immunized with the BHF-1.20.L peptide; (2) control, 8 mice were immunized against bovine serum albumin.
Blood samples were analyzed for total cholesterol, HDL cholesterol, and triglyceride concentration, using commercially available total cholesterol and triglycerides assay kits (Sigma, St. Louis Mo.) (ELISA). HDL concentration was determined after Apo B containing lipoproteins were precipitated using heparin/MnCl2.
When fed a normal rodent chow, total serum cholesterol concentration in LDLR knockout mice remains relatively low. A high fat diet, on the other hand, results in an increase in total serum cholesterol concentration in these mice. The animals were thus switched at 16 weeks of age to a modified “Western Type” diet (0.1% cholesterol content) (Harland Teklad, Madison, Wis.) and fed ad libitum. This diet was expected to increase the total serum cholesterol concentration to a range of 600-800 mg/dl, thereby increasing the rate of lesion formation. […]

T1 sequence (P04114 28-4563): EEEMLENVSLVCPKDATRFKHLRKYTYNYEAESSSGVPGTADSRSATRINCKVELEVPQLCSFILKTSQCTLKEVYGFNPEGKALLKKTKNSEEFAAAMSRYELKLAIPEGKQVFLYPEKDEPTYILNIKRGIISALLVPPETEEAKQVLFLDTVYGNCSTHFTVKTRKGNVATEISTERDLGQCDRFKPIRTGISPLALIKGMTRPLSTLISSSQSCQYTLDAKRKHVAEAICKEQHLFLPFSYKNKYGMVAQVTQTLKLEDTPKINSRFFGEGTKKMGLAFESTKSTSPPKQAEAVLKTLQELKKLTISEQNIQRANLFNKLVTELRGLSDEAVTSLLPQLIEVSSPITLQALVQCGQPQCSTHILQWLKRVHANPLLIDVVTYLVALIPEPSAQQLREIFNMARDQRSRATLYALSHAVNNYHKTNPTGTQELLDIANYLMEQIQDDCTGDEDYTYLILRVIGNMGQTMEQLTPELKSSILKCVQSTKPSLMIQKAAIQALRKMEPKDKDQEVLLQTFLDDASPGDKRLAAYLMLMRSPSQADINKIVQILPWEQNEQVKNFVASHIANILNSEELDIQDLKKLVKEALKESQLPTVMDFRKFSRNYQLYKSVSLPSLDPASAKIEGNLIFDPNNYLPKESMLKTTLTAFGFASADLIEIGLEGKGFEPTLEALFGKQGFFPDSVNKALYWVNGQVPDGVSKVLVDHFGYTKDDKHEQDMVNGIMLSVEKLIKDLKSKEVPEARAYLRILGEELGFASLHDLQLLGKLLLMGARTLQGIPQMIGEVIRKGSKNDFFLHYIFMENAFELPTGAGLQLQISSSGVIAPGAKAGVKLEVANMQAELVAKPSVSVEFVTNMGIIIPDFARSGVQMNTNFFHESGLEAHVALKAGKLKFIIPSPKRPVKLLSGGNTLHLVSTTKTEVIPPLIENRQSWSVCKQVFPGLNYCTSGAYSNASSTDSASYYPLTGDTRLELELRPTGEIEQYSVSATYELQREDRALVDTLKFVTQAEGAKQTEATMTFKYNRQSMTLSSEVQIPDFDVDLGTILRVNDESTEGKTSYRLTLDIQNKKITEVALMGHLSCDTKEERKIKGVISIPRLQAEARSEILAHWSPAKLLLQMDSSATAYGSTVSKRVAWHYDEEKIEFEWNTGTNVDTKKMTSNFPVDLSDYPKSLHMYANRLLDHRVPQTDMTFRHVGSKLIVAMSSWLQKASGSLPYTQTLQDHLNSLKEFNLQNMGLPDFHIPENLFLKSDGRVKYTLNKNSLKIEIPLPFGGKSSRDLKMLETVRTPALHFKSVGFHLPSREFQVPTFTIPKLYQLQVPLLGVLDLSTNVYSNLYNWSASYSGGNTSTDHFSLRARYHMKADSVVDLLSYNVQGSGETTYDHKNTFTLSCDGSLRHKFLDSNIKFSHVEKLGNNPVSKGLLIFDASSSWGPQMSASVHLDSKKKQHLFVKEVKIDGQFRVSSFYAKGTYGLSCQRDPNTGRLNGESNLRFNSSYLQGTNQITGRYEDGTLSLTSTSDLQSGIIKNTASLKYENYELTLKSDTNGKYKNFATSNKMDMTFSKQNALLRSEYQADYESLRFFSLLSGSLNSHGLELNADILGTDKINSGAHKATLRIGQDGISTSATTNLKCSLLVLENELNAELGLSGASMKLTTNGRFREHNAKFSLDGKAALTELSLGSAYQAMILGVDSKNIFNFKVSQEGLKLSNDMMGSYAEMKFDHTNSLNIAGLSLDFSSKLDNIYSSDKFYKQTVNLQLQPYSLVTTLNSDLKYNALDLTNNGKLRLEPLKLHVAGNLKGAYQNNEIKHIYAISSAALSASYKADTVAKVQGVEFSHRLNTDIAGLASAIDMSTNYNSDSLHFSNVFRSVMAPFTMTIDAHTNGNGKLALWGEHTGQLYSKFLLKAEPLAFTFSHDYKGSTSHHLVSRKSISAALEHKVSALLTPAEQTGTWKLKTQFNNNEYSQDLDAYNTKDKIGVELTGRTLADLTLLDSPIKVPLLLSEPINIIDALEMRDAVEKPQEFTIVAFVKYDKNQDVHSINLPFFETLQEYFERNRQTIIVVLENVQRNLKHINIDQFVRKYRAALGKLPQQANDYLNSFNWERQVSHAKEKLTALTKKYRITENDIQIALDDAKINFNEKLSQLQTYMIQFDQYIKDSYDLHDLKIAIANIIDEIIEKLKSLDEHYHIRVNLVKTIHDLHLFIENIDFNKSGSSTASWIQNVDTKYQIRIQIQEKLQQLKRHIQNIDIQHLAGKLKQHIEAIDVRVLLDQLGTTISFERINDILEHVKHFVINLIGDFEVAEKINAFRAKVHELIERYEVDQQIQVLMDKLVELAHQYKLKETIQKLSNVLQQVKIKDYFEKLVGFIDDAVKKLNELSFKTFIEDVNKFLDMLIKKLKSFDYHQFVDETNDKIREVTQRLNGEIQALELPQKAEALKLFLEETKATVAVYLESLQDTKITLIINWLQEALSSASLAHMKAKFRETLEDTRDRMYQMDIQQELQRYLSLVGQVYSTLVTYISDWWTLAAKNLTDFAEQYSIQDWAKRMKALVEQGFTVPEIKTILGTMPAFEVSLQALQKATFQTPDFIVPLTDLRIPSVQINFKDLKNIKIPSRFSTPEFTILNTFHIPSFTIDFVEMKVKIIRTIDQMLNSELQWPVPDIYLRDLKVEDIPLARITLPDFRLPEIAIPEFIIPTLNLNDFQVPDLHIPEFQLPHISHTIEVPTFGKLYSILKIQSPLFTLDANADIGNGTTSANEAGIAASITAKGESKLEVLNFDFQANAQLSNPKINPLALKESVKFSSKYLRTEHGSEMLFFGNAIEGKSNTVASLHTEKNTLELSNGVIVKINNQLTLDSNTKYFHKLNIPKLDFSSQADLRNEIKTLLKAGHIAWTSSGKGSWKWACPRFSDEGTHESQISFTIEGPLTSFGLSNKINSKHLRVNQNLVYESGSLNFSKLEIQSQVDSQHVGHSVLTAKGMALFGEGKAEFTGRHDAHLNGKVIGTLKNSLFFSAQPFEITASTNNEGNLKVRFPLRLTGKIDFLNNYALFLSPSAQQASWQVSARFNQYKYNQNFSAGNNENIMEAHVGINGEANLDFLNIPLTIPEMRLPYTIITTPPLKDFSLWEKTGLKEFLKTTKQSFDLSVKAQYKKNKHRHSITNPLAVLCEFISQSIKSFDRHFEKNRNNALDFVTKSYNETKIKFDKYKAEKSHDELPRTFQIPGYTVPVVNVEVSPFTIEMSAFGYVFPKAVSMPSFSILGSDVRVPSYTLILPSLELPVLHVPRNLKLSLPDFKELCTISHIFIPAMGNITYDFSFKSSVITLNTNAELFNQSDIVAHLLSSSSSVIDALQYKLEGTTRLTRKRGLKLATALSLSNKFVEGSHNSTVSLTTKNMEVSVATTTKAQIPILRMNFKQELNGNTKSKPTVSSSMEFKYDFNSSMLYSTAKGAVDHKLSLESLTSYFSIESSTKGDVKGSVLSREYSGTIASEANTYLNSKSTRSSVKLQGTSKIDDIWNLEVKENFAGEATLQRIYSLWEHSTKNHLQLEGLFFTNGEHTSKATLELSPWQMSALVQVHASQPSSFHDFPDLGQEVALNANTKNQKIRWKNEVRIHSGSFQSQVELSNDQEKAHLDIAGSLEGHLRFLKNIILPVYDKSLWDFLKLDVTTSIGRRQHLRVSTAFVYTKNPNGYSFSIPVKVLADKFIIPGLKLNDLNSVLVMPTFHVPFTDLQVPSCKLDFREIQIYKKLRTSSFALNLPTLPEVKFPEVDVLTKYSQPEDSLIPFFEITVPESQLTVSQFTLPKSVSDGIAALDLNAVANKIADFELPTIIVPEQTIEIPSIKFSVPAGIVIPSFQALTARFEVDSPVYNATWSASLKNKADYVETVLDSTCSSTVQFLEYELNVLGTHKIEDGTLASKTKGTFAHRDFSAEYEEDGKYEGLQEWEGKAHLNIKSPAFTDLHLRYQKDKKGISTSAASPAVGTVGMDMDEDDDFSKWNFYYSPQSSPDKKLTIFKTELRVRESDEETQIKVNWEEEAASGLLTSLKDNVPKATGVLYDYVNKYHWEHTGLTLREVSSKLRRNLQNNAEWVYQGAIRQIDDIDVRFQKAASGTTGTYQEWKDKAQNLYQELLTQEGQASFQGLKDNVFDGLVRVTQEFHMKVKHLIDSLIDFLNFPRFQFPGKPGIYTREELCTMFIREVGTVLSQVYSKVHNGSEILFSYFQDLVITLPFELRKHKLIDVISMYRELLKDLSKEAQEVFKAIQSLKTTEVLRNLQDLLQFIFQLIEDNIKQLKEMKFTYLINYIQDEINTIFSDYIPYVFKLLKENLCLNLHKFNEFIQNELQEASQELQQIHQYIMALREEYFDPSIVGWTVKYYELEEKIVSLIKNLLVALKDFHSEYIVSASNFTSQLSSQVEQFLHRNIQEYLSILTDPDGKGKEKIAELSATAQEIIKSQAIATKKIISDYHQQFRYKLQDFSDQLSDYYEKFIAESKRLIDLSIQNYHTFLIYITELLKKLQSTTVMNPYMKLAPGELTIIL
T3 sequence (P04114 28-4563): as above
T2 sequence (P04114 28-4563): as above

Substance	Inhibition of binding between LBP-1 and LDL [1]	Inhibition of binding between LBP-2 and LDL [2]	Binding of LDL to recombinant LBP-1 [3]	Binding of LDL to recombinant LBP-2 [4]	Accumulation of radiolabeled LDL in ballooned abdominal aorta versus nonimmune-ballooned rabbits [5]	Less aortic cholesterol content as compared to control mice [6] [%]	Effect of immunization on body weight [7]
polyglutamic acid [reference compound]	inhibited binding	inhibited binding					
val-asp-val-asp-glu-tyr-asp-glu-asn-lys-phe-val-asp-glu-glu-asp-gly-gly-asp-gly (VDVDEYDENKFVDEEDGGDG; listed as Homo sapiens) [BHF-1]	inhibited binding		reduce the binding	reduce the binding	lower accumulation	24	no effect
